Data on 23 molecules can be found in US20230027985A1, “SUBSTITUTED HYDANTOINAMIDES AS ADAMTS7 ANTAGONISTS” (Bayer Aktiengesellschaft, priority 2019, published 2023).

pIC50: −log10 of the molar value.

In one experiment the target is T1, ADAMTS4 (Homo sapiens, UniProt O75173).
T1 construct: purchased R&D 4307-AD
T1 sequence (O75173 213-685 limits assumed): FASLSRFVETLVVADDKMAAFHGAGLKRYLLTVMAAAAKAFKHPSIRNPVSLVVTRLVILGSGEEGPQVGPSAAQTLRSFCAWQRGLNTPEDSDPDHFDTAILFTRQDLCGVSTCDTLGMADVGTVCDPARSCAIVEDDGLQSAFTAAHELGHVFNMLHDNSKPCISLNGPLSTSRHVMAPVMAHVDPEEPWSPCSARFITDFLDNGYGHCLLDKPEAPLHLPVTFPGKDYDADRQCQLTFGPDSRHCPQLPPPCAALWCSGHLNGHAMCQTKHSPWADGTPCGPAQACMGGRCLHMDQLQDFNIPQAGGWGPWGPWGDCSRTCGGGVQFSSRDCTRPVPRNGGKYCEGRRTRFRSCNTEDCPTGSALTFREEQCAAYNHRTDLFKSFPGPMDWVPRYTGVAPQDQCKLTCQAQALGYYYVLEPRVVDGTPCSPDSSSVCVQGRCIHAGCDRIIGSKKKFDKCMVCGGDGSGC
Put plainly: Selectivity assay for ADAMTS-7 modulators (FRET), ADAMTS4. The format is biochemical. The following applies: 50 nM enzyme (R&D 4307-AD), 1 μM Dabcyl/Edans FRET substrate, 120 min at 32° C. An outline of the steps:
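Enzyme in 50 mM Tris pH 7.5, 150 mM NaCl, 10 mM CaCl2, 0.05% Brij, preincubated with compound in DMSO; reaction started with FRET substrate. Fluorescence increase read after 120 min at 32° C; IC50 from percent inhibition versus compound concentration.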

Experiment [1] addresses T2, Purified recombinant ADAMTS-7 (rat prodomain/human catalytic domain, SEQ ID No. 01 or 02) (Homo sapiens, UniProt Q9UKP4).
T2 construct: rat ADAMTS-7 signal peptide + prodomain (rat 1-217, Q1EHB3) (N); 2xStrep tag (C); 6xHis tag (C); made in house; host or cells: Expi293 cells
T2 sequence (Q9UKP4 237-537): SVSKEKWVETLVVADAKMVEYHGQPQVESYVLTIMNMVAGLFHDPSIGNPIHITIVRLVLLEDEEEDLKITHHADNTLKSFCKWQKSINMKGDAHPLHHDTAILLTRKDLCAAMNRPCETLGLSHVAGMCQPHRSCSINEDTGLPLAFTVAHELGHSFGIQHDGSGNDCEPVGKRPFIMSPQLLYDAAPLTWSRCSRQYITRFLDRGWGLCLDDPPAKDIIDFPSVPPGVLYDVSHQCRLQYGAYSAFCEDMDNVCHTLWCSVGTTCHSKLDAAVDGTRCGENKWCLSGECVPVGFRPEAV
Put plainly: Assay for ADAMTS-7 enzymatic activity (FRET substrate cleavage). The format is biochemical. The settings on record: FRET substrate SEQ ID No. 11, 120 min at 32° C.; read-out: ADAMTS7-IC50. The gist of the method: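 About 20 nM enzyme in 20 mM HEPES pH 8.0, 150 mM NaCl, 5 mM CaCl2, 0.004% Brij and 10 μM ZnCl2 was mixed with compound in DMSO and a QXL520-quenched FRET peptide from thrombospondin-1 (275-289). After 120 min at 32 °C, fluorescence was read at 485/520 nm. IC50 came from percent inhibition versus concentration.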

For `O=C1NC(=O)[C@](CNC(=O)c2cnn(-c3cnsc3)n2)(C2CC2)N1` [Example 132, N-{[(4R)-4-cyclopropyl-2,5-dioxoimidazolidin-4-yl]methyl}-2-(1,2-thiazol-4-yl)-2H-1,2,3-triazole-4-carboxamide], the figures for the pIC50 (against ADAMTS4; in experiment [1]) were 5.13 and 6.64, respectively.
In the case of `O=C1NC(=O)C(CNC(=O)c2cnn(-c3cccc(F)c3)n2)(C2CCC2)N1` (stereo not drawn) [Example 93, ent-N-[(4-cyclobutyl-2,5-dioxoimidazolidin-4-yl)methyl]-2-(3-fluorophenyl)-2H-1,2,3-triazole-4-carboxamide], the figures for the pIC50 (against ADAMTS4; in experiment [1]) were 5.66 and 8.10, respectively.
On the same counts, the results for `O=C1NC(=O)[C@](CNC(=O)c2cnn(-c3ccccc3)c2)(C2CC2)N1` [Example 56, N-{[(4R)-4-cyclopropyl-2,5-dioxoimidazolidin-4-yl]methyl}-1-phenyl-1H-pyrazole-4-carboxamide] are 5.74 and 6.89.
As for `O=C1NC(=O)C(CNC(=O)c2cnn(-c3ccc(F)cc3)n2)(c2ccnn2C(F)F)N1` (racemic) [Example 128, rac-N-({4-[1-(difluoromethyl)-1H-pyrazol-5-yl]-2,5-dioxoimidazolidin-4-yl}methyl)-2-(4-fluorophenyl)-2H-1,2,3-triazole-4-carboxamide], the values for the pIC50 (against ADAMTS4; in experiment [1]) were 5.62 and 7.54, respectively.
In the same order, the values of `CC(C)C1(CNC(=O)c2cnn(-c3ccccc3)n2)NC(=O)NC1=O` (stereo not drawn) [Example 70, ent-N-[(2,5-dioxo-4-(propan-2-yl)imidazolidin-4-yl)methyl]-2-phenyl-2H-1,2,3-triazole-4-carboxamide] are 5.00 and 7.12.
Turning to `O=C1NC(=O)C(CNC(=O)c2cnn(-c3ccc(F)cc3)n2)(c2ccccn2)N1` (racemic) [Example 22, rac-N-{[2,5-dioxo-4-(pyridin-2-yl)imidazolidin-4-yl]methyl}-2-(4-fluorophenyl)-2H-1,2,3-triazole-4-carboxamide], the pIC50 against ADAMTS4 is 5.52; in experiment [1], 8.00.
Turning to `N#Cc1ccc(-n2ncc(C(=O)NC[C@@]3(C4CC4)NC(=O)NC3=O)n2)cc1` [Example 14, 2-(4-cyanophenyl)-N-{[(4R)-4-cyclopropyl-2,5-dioxoimidazolidin-4-yl]methyl}-2H-1,2,3-triazole-4-carboxamide], the pIC50 on ADAMTS4 was 4.77; in experiment [1], 6.40.
Turning to `CC(C)C1(CNC(=O)c2cnn(-c3ccc(Cl)c(F)c3)n2)NC(=O)NC1=O` (single isomer, unassigned; ent-2) [Example 125, ent-2-(4-chloro-3-fluorophenyl)-N-[(4-isopropyl-2,5-dioxoimidazolidin-4-yl)methyl]-2H-1,2,3-triazole-4-carboxamide], the pIC50 at ADAMTS4 is 6.00; in experiment [1], 8.15.
For `O=C1NC(=O)[C@](CNC(=O)c2cnn(-c3ncc(F)cc3F)n2)(C2CC2)N1` [Example 134, N-{[(4R)-4-cyclopropyl-2,5-dioxoimidazolidin-4-yl]methyl}-2-(3,5-difluoropyridin-2-yl)-2H-1,2,3-triazole-4-carboxamide], the values for the pIC50 (against ADAMTS4; in experiment [1]) were 5.21 and 6.72, respectively.
As for `O=C1NC(=O)C(CNC(=O)c2cnn(-c3ccccc3)n2)(C2CCCOC2)N1` (racemic) [Example 7, rac-N-{[2,5-dioxo-4-(tetrahydro-2H-pyran-3-yl)imidazolidin-4-yl]methyl}-2-phenyl-2H-1,2,3-triazole-4-carboxamide], the pIC50 against ADAMTS4 was 5.07; in experiment [1], 7.21.
As to `O=C1NC(=O)C(CNC(=O)c2cnn(-c3ccc(F)cc3)n2)(C2CCOCC2)N1` (single isomer, unassigned; ent-2) [Example 81], the pIC50 is 5.82 on ADAMTS4 and 7.43 in experiment [1].
Regarding `O=C1NC(=O)[C@](CNC(=O)c2cnn(-c3ccc(Cl)cc3F)n2)(C2CC2)N1` [Example 160, 2-(4-chloro-2-fluorophenyl)-N-{[(4R)-4-cyclopropyl-2,5-dioxoimidazolidin-4-yl]methyl}-2H-1,2,3-triazole-4-carboxamide], the results for the pIC50 (against ADAMTS4; in experiment [1]) were 6.00 and 7.22, respectively.
For `CCCCC1(CNC(=O)c2cnn(-c3ccccc3)n2)NC(=O)NC1=O` (stereo not drawn) [Example 78, ent-N-[(4-butyl-2,5-dioxoimidazolidin-4-yl)methyl]-2-phenyl-2H-1,2,3-triazole-4-carboxamide], the pIC50 against ADAMTS4 is 4.72; in experiment [1] it was 6.72.
`O=C1NC(=O)[C@](CNC(=O)c2cnn(-c3ccc(Cl)cc3)n2)(C2CC2)N1` [Example 9, 2-(4-chlorophenyl)-N-{[(4R)-4-cyclopropyl-2,5-dioxoimidazolidin-4-yl]methyl}-2H-1,2,3-triazole-4-carboxamide]: the pIC50 at ADAMTS4 is 6.32; in experiment [1], 7.59.
As for `CC(C)C1(CNC(=O)c2cnn(-c3ccc(F)c(F)c3)n2)NC(=O)NC1=O` (single isomer, unassigned; ent-2) [Example 123, ent-2-(3,4-difluorophenyl)-N-[(4-isopropyl-2,5-dioxoimidazolidin-4-yl)methyl]-2H-1,2,3-triazole-4-carboxamide], the pIC50 is 6.04 at ADAMTS4 and 8.15 in experiment [1].
In the same order, the values of `CCCC1(CNC(=O)c2cnn(-c3ccccc3)n2)NC(=O)NC1=O` (racemic) [Example 55, rac-N-[(2,5-dioxo-4-propylimidazolidin-4-yl)methyl]-2-phenyl-2H-1,2,3-triazole-4-carboxamide] are 4.72 and 6.62.
For `O=C1NC(=O)C(CNC(=O)c2cnn(-c3cccc(F)c3)n2)(c2nccs2)N1` (racemic) [Example 108, rac-N-{[2,5-dioxo-4-(1,3-thiazol-2-yl)imidazolidin-4-yl]methyl}-2-(3-fluorophenyl)-2H-1,2,3-triazole-4-carboxamide], the pIC50 against ADAMTS4 was 6.22; in experiment [1] it was 7.92.
In the same order, the values of `O=C1NC(=O)[C@](CNC(=O)c2cnn(-c3cc(F)c(F)c(F)c3)n2)(C2CC2)N1` [Example 98, N-{[(4R)-4-cyclopropyl-2,5-dioxoimidazolidin-4-yl]methyl}-2-(3,4,5-trifluorophenyl)-2H-1,2,3-triazole-4-carboxamide] are 5.96 and 7.60.
`Cn1ccnc1C1(CNC(=O)c2cnn(-c3cc(F)c(F)c(F)c3)n2)NC(=O)NC1=O` (stereo not drawn) [Example 146, ent-N-{[4-(1-methyl-1H-imidazol-2-yl)-2,5-dioxoimidazolidin-4-yl]methyl}-2-(3,4,5-trifluorophenyl)-2H-1,2,3-triazole-4-carboxamide]: the pIC50 on ADAMTS4 was 6.97; in experiment [1] it was 8.52.
Take `O=C1NC(=O)C(CNC(=O)c2cnn(-c3ccc(F)c(F)c3)n2)(c2nccs2)N1` (single isomer, unassigned; ent-2) [Example 107, ent-2-(3,4-difluorophenyl)-N-{[2,5-dioxo-4-(1,3-thiazol-2-yl)imidazolidin-4-yl]methyl}-2H-1,2,3-triazole-4-carboxamide]: the pIC50 on ADAMTS4 was 6.51; in experiment [1], 8.15.
Consider `Cc1ccccc1-n1ncc(C(=O)NC[C@@]2(C3CC3)NC(=O)NC2=O)n1` [Example 12, N-{[(4R)-4-cyclopropyl-2,5-dioxoimidazolidin-4-yl]methyl}-2-(2-methylphenyl)-2H-1,2,3-triazole-4-carboxamide], for which the pIC50 against ADAMTS4 is 4.92; in experiment [1], 6.01.
On to `O=C1NC(=O)[C@](CNC(=O)c2cnn(-c3ccccc3F)n2)(C2CC2)N1` [Example 37, N-{[(4R)-4-cyclopropyl-2,5-dioxoimidazolidin-4-yl]methyl}-2-(2-fluorophenyl)-2H-1,2,3-triazole-4-carboxamide], for which the pIC50 against ADAMTS4 was 5.12; in experiment [1], 6.74.
Consider `O=C1NC(=O)C(CNC(=O)c2cnn(-c3ccc(F)c(Cl)c3)n2)(C2CCC2)N1` (single isomer, unassigned; ent-2) [Example 91, ent-2-(3-chloro-4-fluorophenyl)-N-[(4-cyclobutyl-2,5-dioxoimidazolidin-4-yl)methyl]-2H-1,2,3-triazole-4-carboxamide], for which the pIC50 against ADAMTS4 is 5.74; in experiment [1], 7.74.

As usually defined, the pIC50 is −log10 of the IC50, conventionally taken in molar units.
